Laboratory results from patent publication US8008007B2, “S-adenosyl-L-methionine analogs with extended activated groups for transfer by methyltransferases” (RWTH Aachen, priority 2005, dated 2011).

How the values were obtained:
M.TaqI = molecular target: T1, M.TaqI (Thermus aquaticus, UniProt P14385); assay: Modification of adenine-N6 in duplex oligodeoxynucleotide I.II by M.TaqI, nucleoside analysis by HPLC/ESI-MS; format: biochemical; conditions: 37° C. over night, near-stoichiometric enzyme
T1 construct: made in house
T1 sequence (P14385 whole entry): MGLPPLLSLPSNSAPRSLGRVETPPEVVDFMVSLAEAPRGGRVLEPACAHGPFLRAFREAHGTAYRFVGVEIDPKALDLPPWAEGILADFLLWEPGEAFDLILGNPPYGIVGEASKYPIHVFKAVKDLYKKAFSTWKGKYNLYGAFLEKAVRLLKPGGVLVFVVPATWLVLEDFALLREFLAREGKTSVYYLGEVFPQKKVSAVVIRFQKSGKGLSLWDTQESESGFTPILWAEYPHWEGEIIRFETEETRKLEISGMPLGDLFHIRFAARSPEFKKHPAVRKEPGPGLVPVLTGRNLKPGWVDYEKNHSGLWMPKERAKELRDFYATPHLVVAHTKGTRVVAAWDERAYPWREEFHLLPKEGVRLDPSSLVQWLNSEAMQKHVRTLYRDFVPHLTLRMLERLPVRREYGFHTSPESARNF
Source text: (§1) Transfer of the activated ethyl (CH2CH3), propyl (CH2CH2CH3), prop-2-enyl (CH2CHCH2), prop-2-ynyl group (CH2CCH), but-2-ynyl (CH2CCCH3), pent-2-ynyl (CH2CCCH2CH3) or benzyl group (CH2C6H5) from cofactors 3-9 by the DNA adenine-N6 methyltransferase M.TaqI, the DNA cytosine-C5 methyltransferase M.HhaI variant Q82A or the DNA cytosine-N4 methyltransferase M.BcnIB to DNA was first investigated using short duplex oligodeoxynucleotides as substrates. After enzymatic transfer the duplex oligodeoxynucleotides were enzymatically fragmented and the resulting modified nucleosides were analyzed by reversed-phase HPLC coupled with ESI-MS.
M.TaqI was denatured by heating to 95° C. for 10 min and removed by centrifugation ([…], 2 min). The modified duplex oligodeoxynucleotides I^Z—R-II were desalted by gel filtration (NAP-5 column, Amersham Biosciences, Freiburg, Germany), eluted with water (1 mL) and lyophilized.
The modified duplex oligodeoxynucleotides I^Z—R-II were dissolved in buffer (100 μL, 10 mM Tris hydrochloride, 10 mM magnesium chloride, 1 mM zinc acetate, pH 7.5) containing Nuclease PI (1500 u, Sigma, Taufkirchen, Germany) and calf intestine alkaline phosphatase (30 u, MBI Fermentas, St. Leon-Rot, Germany) and incubated at 37° C. for 4 h. Nucleosides were analyzed by reversed-phase HPLC (Symmetry-C18 5 μm, 100 Å, 250×4.6 mm, equipped with a Symmetry-C18 5 μm, 100 Å, 20×4.6 mm pre-column, Waters, Eschborn, Germany). Compounds were eluted with acetonitrile (5% for 7 min, followed by linear gradients to 6% in 15 min, to 35% in 8 min and to 70% in 2 min) in triethylammonium acetate buffer (10 mM, pH 7.0) at a flow of 1 mL/min and detected at 254 nm.
For HPLC-coupled ESI-MS measurements compounds were eluted with methanol (0% for 3 min, followed by a linear gradient to 100% in 22 min) in ammonium formate buffer (20 mM, pH 3.5). A post-column mobile phase modification (equal co-flow of 96% methanol, 4% formic acid) was used to enhance the detection efficiency of 2′-deoxyadenosine and its derivatives. Mass spectra were recorded in 200-370 m/z range.
The hemimethylated duplex oligodeoxynucleotide I.II (compare Scheme 5, Example 2A) was produced by mixing equal molar amounts of complementary single-stranded oligodeoxynucleotide I (5′-GCCGCTCGATGCCG-3′) (SEQ. ID NO. 1) and II (5′-CGGCATCGA^MeGCGGC-3′, A^Me=N6-methyl-2′-deoxyadenosine) (SEQ ID NO. 2) in water, heating at 85° C. for 5 min and slow cooling to room temperature. […] The solution was heated to 95° C. for 10 min, supplemented with Proteinase K and incubated at 55° C. for 2 h. Hydrolysis products were removed by gel filtration (G-25 column, Amersham Biosciences).
The obtained solution was treated with buffer ( 1/10 volume, 100 mM Tris hydrochlorid, 100 mM magnesium chloride, 10 mM zinc acetate, pH 7.5) containing Nuclease P1 (1.14 u, Sigma, Taufkirchen, Germany) and calf intestine alkaline phosphatase (18 u, MBI Fermentas), incubated at 42° C. for 4 h and passed through a Microcon YM-3 spin column (Amicon). Nucleosides were analyzed by reversed-phase HPLC (Discovery HS C18 75×2.1 mm, 3 μm, equipped with a Supelguard Discovery HS C18 20×2.1 mm, 5 μm, pre-column, Supelco, Germany) coupled with a mass spectrometric detector (HP 1100 series ESI-MS equipped with single quadruple). Compounds were eluted with methanol (0% for 3 min, followed by linear gradients to 20% in 15 min and to 80% in 2 min) in ammonium formate buffer (20 mM, pH 3.5) at a flow of 0.3 mL/min. For on-line mass spectrometric detection post-column mobile phase modification (equal co-flow of 96% methanol, 4% formic acid and 1 mM sodium hydroxide) was used to enhance the detection efficiency of 2′-deoxyadenosine, 2′-deoxycytidine and their derivatives. Mass spectra were recorded in 50-600 m/z range.

M.HhaI-Q82A = molecular target: T2, M.HhaI-Q82A (Haemophilus parahaemolyticus, UniProt P05102, Q82A); assay: Modification of cytosine-C5 in duplex oligodeoxynucleotide III.IV by M.HhaI-Q82A, nucleoside analysis by HPLC/ESI-MS; format: biochemical; conditions: duplex III.IV 12.5 μM, cofactor 300 μM, enzyme 15 μM, 37° C. over night
T2 construct: made in house
T2 sequence (P05102 whole entry Q82A): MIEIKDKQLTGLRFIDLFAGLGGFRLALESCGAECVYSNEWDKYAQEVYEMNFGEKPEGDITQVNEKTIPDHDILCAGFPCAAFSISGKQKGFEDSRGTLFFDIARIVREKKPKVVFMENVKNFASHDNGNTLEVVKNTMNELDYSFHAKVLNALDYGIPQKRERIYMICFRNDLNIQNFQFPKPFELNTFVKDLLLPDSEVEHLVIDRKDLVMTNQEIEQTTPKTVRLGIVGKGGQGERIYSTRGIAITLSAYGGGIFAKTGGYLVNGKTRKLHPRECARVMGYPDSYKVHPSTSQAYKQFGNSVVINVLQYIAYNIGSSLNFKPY
Source text: as §1
Therefore, the codon for Q82 was changed to a codon for alanine by standard Kunkel mutagenesis (Kunkel et al., […] Proc. Natl. Acad. Sci. USA 82, 488-492) and the correct DNA sequence of the complete gene was verified by DNA sequencing. Expression and purification of the Q82A variant was performed as described for the wild-type enzyme (Kumar et al., (1992) Biochemistry 31, 8648-8653; Klimasauskas et al., (1998) EMBO J. 17, 317-324). The presence of the amino acid substitution was verified by mass spectrometric analysis of purified M.HhaI-Q82A.
The duplex oligodeoxynucleotide III.IV was produced by mixing equal molar amounts (2.5 nmol) of complementary single-stranded oligodeoxynucleotide III (5′-[…]-3′) (SEQ ID NO. 3) and IV (5′-[…]-3′) (SEQ ID NO. 4) in water, heating at 85° C. for 5 min and slow cooling to room temperature. […] M.HhaI-Q82A was denatured by heating to 80° C. for 10 min and incubation with Proteinase K at 55° C. for 1 h. Hydrolysis products were removed by gel filtration (G-25 column, Amersham Biosciences).
The obtained solutions of duplex oligodeoxynucleotides were treated with buffer ( 1/10 volume, 100 mM Tris hydrochloride, 100 mM magnesium chloride, 10 mM zinc acetate, pH 7.5) containing Nuclease P1 (1500 u, Sigma) and calf intestine alkaline phosphatase (30 u, MBI Fermentas) and incubated at 37° C. for 4 h. Nucleosides were analyzed by reversed-phase HPLC (Discovery C18 150×2.1 mm, 5 μm, equipped with a Supelguard Discovery C18 20×2.1 mm, 5 μm, pre-column, Supelco, Germany) coupled with a mass spectrometric detector (HP 1100 series ESI-MS equipped with single quadruple). Compounds were eluted with methanol (0% for 6 min, followed by linear gradients to 56% in 15 min and to 80% in 1 min) in ammonium formate buffer (20 mM, pH 4.25 for cofactors 3, 4, 6 and pH 3.5 for cofactors 5, 7, 8) at a flow of 0.3 mL/min and detected at 280 nm. For on-line mass spectrometric detection post-column mobile phase modification (equal co-flow of 96% methanol, 4% formic acid and 1 mM sodium hydroxide) was used to enhance the detection efficiency of 2′-deoxycytidine and its derivatives. Mass spectra were recorded in 50-600 m/z range.

| SMILES | cofactor function for M.TaqI (transfer of group Z-R to adenine-N6) (M.TaqI) | cofactor function for M.HhaI-Q82A (transfer of group Z-R to cytosine-C5) (M.HhaI-Q82A) |
| --- | --- | --- |
| CC#CC[S+](CCC(N)C(=O)O)CC1OC(n2cnc3c(N)ncnc32)C(O)C1O (mixture of isomers) [Cofactor 7] | functions as a cofactor | functions as a cofactor |
| CC[S+](CCC(N)C(=O)O)CC1OC(n2cnc3c(N)ncnc32)C(O)C1O (stereo not shown) [Cofactor 3] | functions as a cofactor | functions as a cofactor |
| CCC[S+](CCC(N)C(=O)O)CC1OC(n2cnc3c(N)ncnc32)C(O)C1O (stereo not shown) [Cofactor 4] | functions as a cofactor | does not function as a cofactor |
| C=CC[S+](CCC(N)C(=O)O)CC1OC(n2cnc3c(N)ncnc32)C(O)C1O (stereo not shown) [Cofactor 5] | functions as a cofactor | functions as a cofactor |
| C#CC[S+](CCC(N)C(=O)O)CC1OC(n2cnc3c(N)ncnc32)C(O)C1O (stereo not shown) [Cofactor 6] | functions as a cofactor | functions as a cofactor |
| CCC#CC[S+](CCC(N)C(=O)O)CC1OC(n2cnc3c(N)ncnc32)C(O)C1O (stereo not shown) [Cofactor 8] | functions as a cofactor | functions as a cofactor |
| NCCCC(=O)NCC#CC[S+](CCC(N)C(=O)O)CC1OC(n2cnc3c(N)ncnc32)C(O)C1O (stereo not shown) [Cofactor 10] | functions as a cofactor | – |
